Laboratory results reported in paper PMC12467033, “Exploring the Inhibitory Potential of Six Porphyrin Compounds Against α-Amylase and α-Glucosidase Linked to Diabetes” (Biomolecules, 2025).
“And” between values parts separate entries of the source, which are not always exact repeats. Equal entries are not always repeated. Where two headings read alike, the source gives them in different places.

How the values were obtained:
α-amylase [1] = molecular target: T1, α-amylase (Sus scrofa, UniProt P00690); assay: Three-dimensional fluorescence spectroscopy of α-amylase complexes; conditions: 298 K; TAPP 2.5, THPP 10, TCPP 10, Fe–TCPP 12.5, Ni–TCPP 17.5, Cu–TCPP 10 μg/mL
T1 sequence (P00690 16-511): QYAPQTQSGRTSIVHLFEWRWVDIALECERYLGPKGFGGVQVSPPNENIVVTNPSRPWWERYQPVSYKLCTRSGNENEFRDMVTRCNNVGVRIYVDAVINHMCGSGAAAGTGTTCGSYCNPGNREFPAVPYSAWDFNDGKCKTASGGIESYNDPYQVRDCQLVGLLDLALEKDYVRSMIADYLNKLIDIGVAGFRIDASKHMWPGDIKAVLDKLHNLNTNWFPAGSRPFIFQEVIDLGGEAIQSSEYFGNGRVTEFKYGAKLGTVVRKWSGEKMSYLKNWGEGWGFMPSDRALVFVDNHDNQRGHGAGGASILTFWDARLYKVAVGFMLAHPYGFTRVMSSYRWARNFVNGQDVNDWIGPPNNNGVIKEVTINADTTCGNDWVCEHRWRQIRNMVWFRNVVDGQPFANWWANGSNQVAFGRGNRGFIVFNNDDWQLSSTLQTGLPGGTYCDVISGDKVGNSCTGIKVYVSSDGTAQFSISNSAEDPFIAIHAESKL
Experimental: At 298 K, with excitation wavelengths ranging from 200 to 600 nm (2 nm increments) and emission wavelengths from 200 to 600 nm, the influence of small molecules on enzyme conformation was assessed by examining peaks in 3D fluorescence spectra [41].

α-glucosidase [2] = molecular target: T2, α-glucosidase (Saccharomyces cerevisiae, UniProt P53341); type: biochemical
T2 sequence (P53341 whole entry): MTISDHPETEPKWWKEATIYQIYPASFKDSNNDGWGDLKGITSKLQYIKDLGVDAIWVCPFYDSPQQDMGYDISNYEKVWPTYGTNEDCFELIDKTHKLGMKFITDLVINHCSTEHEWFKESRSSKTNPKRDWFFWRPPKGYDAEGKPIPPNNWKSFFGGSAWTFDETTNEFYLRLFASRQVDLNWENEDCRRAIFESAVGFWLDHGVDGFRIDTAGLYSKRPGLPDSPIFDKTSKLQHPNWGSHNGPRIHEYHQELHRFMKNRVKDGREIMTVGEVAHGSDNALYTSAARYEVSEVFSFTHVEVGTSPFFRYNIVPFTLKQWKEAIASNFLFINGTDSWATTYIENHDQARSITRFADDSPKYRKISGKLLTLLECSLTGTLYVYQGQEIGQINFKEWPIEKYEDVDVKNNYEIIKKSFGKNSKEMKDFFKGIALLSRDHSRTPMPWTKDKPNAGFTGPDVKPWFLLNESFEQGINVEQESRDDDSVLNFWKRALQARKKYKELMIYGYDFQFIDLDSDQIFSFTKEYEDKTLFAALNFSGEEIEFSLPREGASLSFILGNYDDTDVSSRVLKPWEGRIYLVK
From the text: In the experiment, the concentration of the fixed substrate Gal-G2-α-CNP/pNPG solution was 5 mmol/L, and the concentrations of the two enzymes (100, 200, 300, 400 U/L) were used to determine the effect of different concentrations of porphyrins on enzyme activity. The concentration of the enzyme was 200 U/L, and the concentration of the substrate Gal-G2-α-CNP/pNPG solution (2.5, 5, 7.5, 10 mmol/L) was used to determine the effect of different concentrations of porphyrins on the enzyme-catalyzed substrate activity.
Upon identifying the type of inhibition, the kinetic equations vary for different inhibition types.
In the formula, v, Vmax, Km, Ki, and Kis represent the reaction rate, maximum reaction rate, Michaelis constant, and free enzyme inhibition constant, respectively, and the binding enzyme inhibition constant. [S] denotes the substrate concentration. [I] denotes the inhibitor concentration.

α-amylase [3] = molecular target: T1, α-amylase; assay: FTIR secondary structure analysis of α-AMY complexes; conditions: enzyme–porphyrin molar ratio 1:2, amide I band
From the text: A molar ratio of 1:2 (α-amylase/α-glucosidase)–porphyrin solution was placed in a cryocentrifugal concentrator and the dried solid sample was mixed with dry KBr and measured using a Nicolet IS-50 FTIR Spectrometer (ThermoFisher, Waltham, MA, USA) with a scanning range of 4000–400 cm^−1 and a resolution of 4 cm^−1. The overlapping peaks in the amide I band (1700–1600 cm^−1) were further analyzed into multiple feature sub-peaks, and quantitative analysis of the relative content of various secondary structures in proteins using curve fitting methods was performed.

α-amylase [4] = molecular target: T1, α-amylase; assay: Fluorescence quenching, binding and thermodynamics with α-amylase
From the text: In the α-amylase experiment, a series of porphyrins and amylase (200 U/L) were mixed in a volume ratio of 1:1.
(§1) The Stern–Volmer equation [35] was adopted to determine the quenching mechanisms between six porphyrin compounds and both enzymes in the experimental group, with Formula (6):(6) F0/F=1+Ksv[Q]=1+Kqτ0[Q]
(§2) The Stern–Volmer equation was adapted based on experimental data to more accurately characterize the quenching behavior [36], with Formula (7):(7) F0/F=e^Ksv[Q]=e^Kqτ0[Q]
(§3) In the formula, the fluorescence quenching ratio was calculated as F0/F, where F0 corresponds to the emission intensity of pure α-amylase solution (control) and F denotes the intensity measured after the incremental addition of porphyrin ligands. KSV and Kq denote the Stern–Volmer quenching constant and the bimolecular quenching rate constant, respectively, τ0 (10^−8 s) is the average fluorescence lifetime of the fluorophore in the absence of quencher, and [Q] indicates the concentration of porphyrin compounds.
(§4) Due to the presence of an internal filtration effect, a decrease in the fluorescence intensity of the system may occur. Therefore, all fluorescence data were corrected using Formula (8) to eliminate the internal filtration effect.(8) Fcor=Fobse^(Aex+Aem)/2
(§5) The evaluation of the interaction forces between porphyrin compounds and the two enzymes can be achieved by calculating thermodynamic parameters. When both ΔH^0 and ΔS^0 are positive, the predominant interaction force is hydrophobic. When both ΔH^0 and ΔS^0 are negative, the main forces are hydrogen bonding and van der Waals forces. When ΔH^0 < 0 and ΔS^0 > 0, the primary interaction is electrostatic attraction.
(§6) The thermodynamic parameters were calculated using Formulas (9) and (10), and then the Van’t Hoff plot for the interactions between the porphyrin compounds and the two enzymes was generated by plotting lnKa on the Y-axis versus 1/T on the X-axis.(9) lnKa=−ΔH^0/RT+ΔS^0/R (10) ΔG^0=ΔH^0−TΔS^0=−RTlnKa

α-glucosidase [5] = molecular target: T2, α-glucosidase; assay: Fluorescence quenching, binding and thermodynamics with α-glucosidase
Experimental: In the α-amylase experiment, a series of porphyrins and amylase (200 U/L) were mixed in a volume ratio of 1:1. In the α-glucosidase experiment, the glucosidase concentration was 400 U/L, mixed in a volume ratio of 1:1; the samples were maintained at three different temperatures (298, 304, and 310 K) for 30 min, with excitation at 280 nm and emission scanning from 300 to 500 nm.
as §1, §2, §3, §4, §5, §6

O=C(O)c1ccc(-c2c3nc(c(-c4ccc(C(=O)O)cc4)c4ccc([nH]4)c(-c4ccc(C(=O)O)cc4)c4nc(c(-c5ccc(C(=O)O)cc5)c5ccc2[nH]5)C=C4)C=C3)cc1.[Cu+2] [Cu–TCPP, copper (II) meso-tetra (4-carboxyphenyl)porphyrin]
Peak 1 Fluorescence Intensity (α-amylase [1]): 313.1
Peak 2 Fluorescence Intensity (α-amylase [1]): 16.48
Km (α-glucosidase [2]): 3.3657 ± 0.0431 µg/mL and 3.8284 ± 0.1475 µg/mL and 4.7824 ± 0.1009 µg/mL and 5.4948 ± 0.1841 µg/mL and 6.4626 ± 0.1103 µg/mL
Vmax (α-glucosidase [2]; C 5 μg/mL): 0.1496 ± 0.0019 ΔOD/min
Vmax (α-glucosidase [2]; C 10 μg/mL): 0.1344 ± 0.0052 ΔOD/min
Vmax (α-glucosidase [2]; C 25 μg/mL): 0.1028 ± 0.0022 ΔOD/min
Vmax (α-glucosidase [2]; C 50 μg/mL): 0.0718 ± 0.0024 ΔOD/min
Vmax (α-glucosidase [2]; C 100 μg/mL): 0.0473 ± 0.0008 ΔOD/min
type of inhibition of α-glucosidase (α-glucosidase [2]; Lineweaver–Burk plots): mixed type
reversibility of inhibition of α-glucosidase (α-glucosidase [2]; enzyme 100–400 U/L, substrate 5 mmol/L): reversible inhibition
Kis (α-glucosidase [2]; enzyme–substrate complex inhibition constant): 38.9429 ± 0.1021 µg/mL
Ki (α-glucosidase [2]; free enzyme inhibition constant): 13.7332 ± 0.0823 µg/mL
Random Coil (α-amylase [3]): 20.94 ± 0.06%
α-Helix (α-amylase [3]): 20.76 ± 0.05%
β-Antiparallel (α-amylase [3]): 12.17 ± 0.02%
β-Sheet (α-amylase [3]): 10.94 ± 0.01%
β-Turn (α-amylase [3]): 35.19 ± 0.06%
Ka (α-amylase [4]; 298–310 K): 10^3–10^4 L/mol
quenching mechanism of α-amylase fluorescence (α-amylase [4]; Stern–Volmer plots, 298–310 K): pure static quenching
Ka (binding constant) (α-amylase [4]; T 298 K): 0.20 ± 0.01 ×10^5 L/mol
Kq (α-amylase [4]; T 298 K): 4.37 ± 0.07 ×10^12 L/mol/s
Ksv (α-amylase [4]; T 298 K): 4.37 ± 0.07 ×10^4 L/mol
n (number of binding sites) (α-amylase [4]; T 298 K): 0.93
ΔG^0 (α-amylase [4]; T 298 K): -5.868 ± 0.012 kcal/mol
Ka (binding constant) (α-amylase [4]; T 304 K): 0.10 ± 0.01 ×10^5 L/mol
Kq (α-amylase [4]; T 304 K): 4.33 ± 0.03 ×10^12 L/mol/s
Ksv (α-amylase [4]; T 304 K): 4.33 ± 0.03 ×10^4 L/mol
n (number of binding sites) (α-amylase [4]; T 304 K): 0.84
ΔG^0 (α-amylase [4]; T 304 K): -5.566 ± 0.0072 kcal/mol
Ka (binding constant) (α-amylase [4]; T 310 K): 0.06 ± 0.01 ×10^5 L/mol
Kq (α-amylase [4]; T 310 K): 4.32 ± 0.02 ×10^12 L/mol/s
Ksv (α-amylase [4]; T 310 K): 4.32 ± 0.02 ×10^4 L/mol
n (number of binding sites) (α-amylase [4]; T 310 K): 0.78
ΔG^0 (α-amylase [4]; T 310 K): -5.337 ± 0.012 kcal/mol
ΔH^0 (α-amylase [4]; Van’t Hoff, 298–310 K): -19.04 ± 0.017 kcal/mol
ΔS^0 (α-amylase [4]; Van’t Hoff, 298–310 K): −185.16 ± 0.05 J/mol/k
binding constants K (α-glucosidase [5]; 310 K): (0.69 ± 0.01) × 10^5 L·mol^−1
quenching mechanism of α-glucosidase fluorescence (α-glucosidase [5]; Stern–Volmer plots, 298–310 K): static quenching
Ka (binding constant) (α-glucosidase [5]; T 298 K): 55.21 ± 0.11 ×10^5 L/mol
Kq (α-glucosidase [5]; T 298 K): 7.35 ± 0.09 ×10^12 L/mol/s
Ksv (α-glucosidase [5]; T 298 K): 7.35 ± 0.09 ×10^4 L/mol
n (number of binding sites) (α-glucosidase [5]; T 298 K): 1.44
ΔG^0 (α-glucosidase [5]; T 298 K): -9.192 ± 0.019 kcal/mol
Ka (binding constant) (α-glucosidase [5]; T 304 K): 7.38 ± 0.04 ×10^5 L/mol
Kq (α-glucosidase [5]; T 304 K): 6.74 ± 0.03 ×10^12 L/mol/s
Ksv (α-glucosidase [5]; T 304 K): 6.74 ± 0.03 ×10^4 L/mol
n (number of binding sites) (α-glucosidase [5]; T 304 K): 1.25
ΔG^0 (α-glucosidase [5]; T 304 K): -8.162 ± 0.012 kcal/mol
Ka (binding constant) (α-glucosidase [5]; T 310 K): 0.69 ± 0.01 ×10^5 L/mol
Kq (α-glucosidase [5]; T 310 K): 5.05 ± 0.02 ×10^12 L/mol/s
Ksv (α-glucosidase [5]; T 310 K): 5.05 ± 0.02 ×10^4 L/mol
n (number of binding sites) (α-glucosidase [5]; T 310 K): 1.03
ΔG^0 (α-glucosidase [5]; T 310 K): -6.859 ± 0.0096 kcal/mol
ΔH^0 (α-glucosidase [5]; Van’t Hoff, 298–310 K): -67.103 ± 0.0311 kcal/mol
ΔS^0 (α-glucosidase [5]; Van’t Hoff, 298–310 K): −812.45 ± 0.17 J/mol/k
